From patent publication US20240209355A1, “NUCLEIC ACID BINDING PROTEIN FORMULATIONS AND USES THEREOF” (Spotlight Therapeutics, priority 2020, published 2024) come the findings set out here.

Where “and” joins values, the source holds several entries; their conditions need not be identical. Identical values can stand only once.

Data set [1] deals with dsDNA target. The data set can be described thus: In vitro DNA cleavage of TAGE agent RNPs with re-folded or unfolded sgRNA. It counts as biochemical. Particulars: PBS, relative to Cas9(C80A)-2×NLS. How it is done:
To assess DNA cleavage, 100 nM of each Cas9 RNP was incubated for 30 minutes at 37° C. with 100 nM of a dsDNA target. DNA cleavage was normalized to DNA cleavage achieved through incubation in buffer alone (i.e., untreated RNP). 1 μl of 20 mg/ml proteinase K was added to the reaction and incubated for 15 minutes at 50° C. The quenching reaction was held at 4° C. prior to separation on a Fragment Analyzer capillary electrophoresis (CE) instrument. 2 μl of the reaction was diluted with 22 μl of TE buffer and analyzed by capillary electrophoresis, per the manufacturer's recommendations. Cleavage reactions were run in triplicate, and background was subtracted from the band intensities. Percent cleavage was quantified with the following equation: % cleavage=(total mass cleaved product)/(total mass of substrate). The results are expressed as % cleavage relative to untreated RNP.
Next, the impact of re-folded gRNA on the in vitro DNA cleavage activity of TAGE agent RNPs was assessed.

The test system of data set [2] is primary human T cells. The data set can be described thus: Editing by TAGE after pre-incubation of cells with inhibitors, loss of surface CD47 by flow cytometry. Particulars: 30 min pre-incubation; for editing of primary T cells by TAGE: DMA, EIPA 100 μM, Cyto D 20 μM, Lat A 10 μM, 3 μM TAGE26, 0.35 μM AB27-TAGE26 or AB2-TAGE26; for editing of primary T cells by an antibody TAGE: Dynasore 80 μM. Format: cell-based. How it is done: Antibodies were conjugated to Cas9 using the SpyTag2/SpyCatcher system and a guide RNA targeting CD47 was associated with the respective TAGE agents to form RNPs. Primary human T cells were pre-incubated with the indicated drug for 30 minutes. Then, RNPs were added to the cells at the indicated concentration and co-incubated for an additional hour. The cells were washed after one hour to remove inhibitors and RNPs. The percentage of cells that were edited under each condition was measured using a phenotypic readout detecting the loss of surface CD47 by flow cytometry.
Each data point represents a biological replicate. For each group, the horizontal line represents the mean and the error bars represent the standard deviation of the mean. With respect to the descriptions in FIG. 18, NT guide is a TAGE with non-targeting guide RNA; MeOH is methanol (a control for DMA and EIPA; used at 0.5% v/v; DMSO is dimethyl sulfoxide, a control for Cyto D and Lat A (used at 1% v/v); DMA is 5-(N,N-dimethyl)-amiloride, an inhibitor of NHE1 (used at 100 μM); EIPA is 5-(N-ethyl-N-isopropyl)-amiloride, an inhibitor of NHE1, (used at 100 μM); Cyto D is cytochalasin D, an inhibitor of F-actin polymerization (used at 20 μM); and Lat A is latrunculin A, an inhibitor of F-actin polymerization (used at 10 μM).
Antibodies were conjugated to Cas9 using the SpyTag/SpyCatcher system and a guide RNA targeting CD47 was associated with the respective TAGE agents to form an RNP. Primary human T cells were pre-incubated with the indicated drug (nystatin or Dynasore) for 30 minutes. Then, RNPs were added to cells at the indicated concentration and co-incubated for an additional hour. The cells were washed after one hour to remove inhibitors and RNPs. The percentage of cells that were edited under each condition was measured using a phenotypic readout detecting the loss of surface CD47 by flow cytometry. Each data point represents a biological replicate. For each group, the horizontal line represents the mean and the error bars represent the standard deviation of the mean. NT guide stood for TAGE with non-targeting guide RNA. DMSO is dimethylsulfoxide, a control for nystatin and Dynasore, which was used at 2% v/v. Dynasore is an inhibitor of dynamin, which was used at 80 μM. Nystatin was used at 108 μM.
In general terms: Flow cytometry measures light scatter and fluorescence of single cells or particles in a stream.

Data set [3] deals with T cells. The data set is described as follows: Ex vivo editing with chloroquine, loss of surface CD47 by flow cytometry. Particulars: chloroquine 10, 30 or 100 μM for 24 hours after 1 hour RNP co-incubation with PBMCs, vs 0 μM. It counts as cell-based, human. The method, then:
FIG. 9 graphically depicts the results of an ex vivo editing assay in which TAGE agents including Cas9-2×NLS:sgBFP, 4×NLS-Cas9-2×NLS, Cas9-2×NLS-SpyCatcher-4×NLS, or IL-2[-SpyTag]:Cas9-2×NLS-SpyCatcher-4×NLS were co-incubated with primary human T cells and assessed for editing in buffers including different levels of chloroquine (0 μM, 10 μM, 30 μM, or 100 μM). A guide RNA targeting CD47 was associated with the respective TAGE agents to form ribonucleoproteins, and the ribonucleoproteins were co-incubated with T cells to test for editing. Editing was measured using a phenotypic readout measuring the loss of surface CD47 using flow cytometry.
In this example, the impact of chloroquine on ex vivo editing by TAGE agents was assessed. RNP TAGE agents including Cas9-2×NLS:sgBFP, 4×NLS-Cas9-2×NLS, Cas9-2×NLS-SpyCatcher-4×NLS, or IL-2-SpyTag:Cas9-2×NLS-SpyCatcher-4×NLS. A guide RNA targeting CD47 (or a non-targeting control, sgBFP) was associated with the respective TAGE agents to form the ribonucleoproteins. The RNPs were co-incubated with PBMCs for 1 hour followed by incubation with 0 μM chloroquine, 10 μM chloroquine, 30 μM chloroquine, or 100 μM chloroquine for 24 hours. The percentage of T cells that were edited by each TAGE was measured using a phenotypic readout detecting the loss of surface CD47 by flow cytometry.

Data set [4] has as its system primary human T cells. The data set can be described thus: Ex vivo editing by co-incubation in buffers with additives, loss of surface CD47 by flow cytometry. It counts as cell-based. Particulars: for genome editing (percentage of edited T cells): 1 hour, increasing NaCl (185-400 mM) and/or glycerol (1-15% w/v); for combined effect of glycerol and sodium chloride on genome editing: e.g. 300 mM NaCl with 12.5% glycerol; for TAGE editing efficacy: additive in combination with NaCl. The method, then:
In this example, the impact of glycerol and salt on ex vivo editing by TAGE agents was assessed. Ribonucleoproteins were prepared from TAGE agents including 4×NLS-Cas9-2×NLS. A guide RNA targeting CD47 was associated with the respective TAGE agents to form ribonucleoproteins. […] The cells were washed after one hour to remove the additives and RNPs. The percentage of T cells that were edited under each condition was measured using a phenotypic readout detecting the loss of surface CD47 by flow cytometry. Additionally, the levels of live cells per mL 24 hours after co-incubation in the indicated buffer was assessed for each buffer condition.
In this example, the impact of salt and various polyols (e.g., sugar alcohols) or sugar on ex vivo editing by TAGE agents was assessed. Ribonucleoproteins were prepared from TAGE agents including 4×NLS-Cas9-2×NLS. A guide RNA targeting CD47 was associated with the respective TAGE agents to form ribonucleoproteins. […] Buffers having different salt concentrations (185 mM NaCl or 300 mM NaCl) and sugar alcohol or sugar concentrations ([…], 0.8 M, 1.2 M, 1.6 M, 2.0 M, or 2.4 M) were assessed. The cells were washed after one hour to remove additives and RNPs. The percentage of cells that were edited under each condition was measured using a phenotypic readout detecting the loss of surface CD47 by flow cytometry. Additionally, the levels of live cells per mL 24 hours after co-incubation in the indicated buffer was assessed for each buffer condition.
In this example, the impact of a cationic polymer (e.g., protamine) with or without glycerol on ex vivo editing by RNP TAGE agents was assessed. Ribonucleoproteins were prepared from TAGE agents including 4×NLS-Cas9-2×NLS or AsCas12a. A guide RNA targeting CD47 was associated with the respective TAGE agents to form ribonucleoproteins. […] The cells were washed after one hour to remove additives and RNPs. The percentage of T cells that were edited under each condition was measured using a phenotypic readout detecting the loss of surface CD47 by flow cytometry. Additionally, the levels of light scattering at 340 nm was assessed to detect aggregate formation. […]

For data set [5], the system named is primary human T cells. The data set is described as follows: Editing by antibody TAGE or CPP-TAGE in T cell media with sugar, sugar alcohol or salt additive, loss of surface CD47 by flow cytometry. It counts as cell-based.
Protocol: RNPs at the indicated concentration were co-incubated with primary human T cells for 1 hour in buffer including 0.5 M sucrose. The cells were washed after one hour to remove additives and RNPs. The editing percentage under each condition was measured using a phenotypic readout detecting the loss of surface CD47 by flow cytometry.
Five different TAGE agent were tested. […] The cells were washed after one hour to remove additives and RNPs. The percentage of cells that were edited under each condition was measured using a phenotypic readout detecting the loss of surface CD47 by flow cytometry. Each data point represents the mean of biological triplicates, and the error bars represent the standard deviation of the mean.
The cells were washed after one hour to remove additives and RNPs. The percentage of cells that were edited under each condition was measured using a phenotypic readout detecting the loss of surface CD47 by flow cytometry. Each data point represents a biological replicate. […]
RNP at the indicated concentration was co-incubated with primary human T cells for 1 hour in T cell media with no additive (Baseline) or in T cell media with 0.5 M sucrose. […] The percentage of cells that were edited under each condition was measured using a phenotypic readout detecting the loss of surface CD47 by flow cytometry. […]
A short description of data set [6]: Light scattering at 340 nm to detect aggregate formation with protamine. Format: physicochemical. Particulars: protamine in buffer. How it is done:
In this example, the impact of a cationic polymer (e.g., protamine) with or without glycerol on ex vivo editing by RNP TAGE agents was assessed. Ribonucleoproteins were prepared from TAGE agents including 4×NLS-Cas9-2×NLS or AsCas12a. A guide RNA targeting CD47 was associated with the respective TAGE agents to form ribonucleoproteins. […] The cells were washed after one hour to remove additives and RNPs. The percentage of T cells that were edited under each condition was measured using a phenotypic readout detecting the loss of surface CD47 by flow cytometry. Additionally, the levels of light scattering at 340 nm was assessed to detect aggregate formation.

On to “4×NLS-Cas9(C80A)-2×NLS: TAGE agent: Cas9(C80A) with four N-terminal and two C-terminal NLS”, for which the DNA cleavage activity entry in data set [1] is recorded as “reduced activity in PBS”.

As to `C=C1[C@@H](C)[C@H]2[C@H](Cc3ccccc3)NC(=O)[C@]23[C@H](OC(C)=O)/C=C/[C@@](C)(O)C(=O)[C@@H](C)C/C=C/[C@H]3[C@@H]1O` [Cyto D, cytochalasin D], the “editing of primary T cells by TAGE” value in data set [2] is “decreased”.

In the case of `CN(C)c1nc(N)c(C(=O)NC(=N)N)nc1Cl` [DMA, 5-(N,N-dimethyl)-amiloride], the “editing of primary T cells by TAGE” value in data set [2] was “increased”.

Take `CCN(c1nc(N)c(C(=O)N=C(N)N)nc1Cl)C(C)C` [EIPA, 5-(N-ethyl-N-isopropyl)-amiloride]: the “editing of primary T cells by TAGE” value in data set [2] is listed as “increased”.

`C/C1=C/C(=O)O[C@@H]2C[C@@H](CC[C@H](C)/C=C\C=C\CC1)O[C@@](O)([C@@H]1CSC(=O)N1)C2` [Lat A, latrunculin A]: the “editing of primary T cells by TAGE” value in data set [2] was “decreased”.

`CCN(CC)CCCC(C)Nc1ccnc2cc(Cl)ccc12` (stereo not shown) [chloroquine]: the “editing of T cells by TAGE RNPs” value in data set [3] was “increased editing of T cells”.

As for `O=C(N/N=C/c1ccc(O)c(O)c1)c1cc2ccccc2cc1O` [dynasore, Dynasore], the “editing of primary T cells by an antibody TAGE” value in data set [2] (nystatin 108 μM) was “not increased”.

Take `OCC(O)CO` [glycerol]: in data set [4] (3.75 μM 4×NLS-Cas9-2×NLS RNP), the “genome editing (percentage of edited T cells)” value is listed as “increased genome editing in cells”; the “combined effect of glycerol and sodium chloride on genome editing” value is listed as “synergistic effect on genome editing”; the TAGE editing efficacy entry is “can increase TAGE editing efficacy”. In addition, the “glycerol concentration at peak editing ex vivo” value in data set [4] (human T cells, depending on the TAGE and the salt concentration) was 7-10% and 15-16%.

As to `C[C@@H]1[C@H](O)[C@@H](C)/C=C/C=C/CC/C=C/C=C/C=C/C=C/C(O[C@H]2O[C@H](C)[C@@H](O)[C@H](N)[C@@H]2O)CC2O[C@](O)(CC(O)C(O)CCC(O)CC(O)CC(O)CC(=O)O[C@H]1C)CC(O)C2C(=O)O` (stereo partly shown) [nystatin], in data set [2] (nystatin 108 μM), the “editing by TAGE containing a non-targeting antibody (AB27-TAGE26)” value was “did not increase editing” and the “editing of primary T cells by an antibody TAGE” value was “increased”.

Consider `[Cl-].[Na+]` [sodium chloride], for which, in data set [4] (3.75 μM 4×NLS-Cas9-2×NLS RNP), the “genome editing (percentage of edited T cells)” value is “increased genome editing in cells”; the “combined effect of glycerol and sodium chloride on genome editing” value is listed as “synergistic effect on genome editing”.

In the case of `OC[C@H]1O[C@@](CO)(O[C@H]2O[C@H](CO)[C@@H](O)[C@H](O)[C@H]2O)[C@@H](O)[C@@H]1O` [sucrose], the TAGE editing efficacy entry in data set [4] (3.75 μM 4×NLS-Cas9-2×NLS RNP) is “can increase TAGE editing efficacy”. Besides, the “lowest TAGE concentration at which editing is enabled” value in data set [5] (0.5 M sucrose) came to 0.7 nM. Besides, the “effect of additive on editing” value in data set [5] (0.5 M sucrose as formulation additive) is “improves editing”.

For the molecule `OC[C@@H](O)[C@H](O)[C@@H](O)CO` [xylitol], the “percentage of edited cells” value in data set [4] (3.75 μM 4×NLS-Cas9-2×NLS RNP, 300 mM NaCl and ≥1 M xylitol) is listed as “over 50%”. The TAGE editing efficacy result in data set [4] (3.75 μM 4×NLS-Cas9-2×NLS RNP) is “can increase TAGE editing efficacy”.

For poly-glutamic acid [PGA], the editing by co-incubation result in data set [4] (3.75 μM Cas9 or AsCas12a RNP, PGA 1500-5500 Da or 15,000 Da, also at lower concentrations) was “inhibited editing by co-incubation”.

Turning to protamine, the “editing by Cas12a” value in data set [4] (protamine in buffer) is reported as “limited benefits for Cas12a editing”. Further, the “editing by 4×NLS-Cas9-2×NLS” value in data set [4] (protamine in buffer, low glycerol concentrations) is listed as “increased editing”. Further, the “aggregation of Cas12a (340 nm light scattering)” value in data set [6] was “did not cause appreciable Cas12a aggregation”. For the same molecule, the “aggregation of 4×NLS-Cas9-2×NLS (340 nm light scattering)” value in data set [6] (low glycerol concentrations) is “caused aggregation”.
